Measurements published in patent publication US20150139959A1 (priority 2009, published 2015).

Experiments:
3T3 mouse fibroblasts = format: cell-based
[1] = 14-day daily gavage toxicity study, body and organ weights; conditions: for Feed efficacy (Body weight gain/Food Consumption) / Final body weight: 14 days
Caco-2 cells = format: cell-based, Human

Structure (SMILES)	BrdU bioassay IC50 (95% Confidence Interval) (3T3 mouse fibroblasts)	Food Consumption during the 14 days ([1]; 25 mg/kg bw) [g]	Feed efficacy (Body weight gain/Food Consumption) ([1]; 25 mg/kg bw)	Final body weight ([1]; 25 mg/kg bw) [g]	Food Consumption during the 14 days ([1]; 100 mg/kg bw) [g]	Feed efficacy (Body weight gain/Food Consumption) ([1]; 100 mg/kg bw)	Final body weight ([1]; 100 mg/kg bw) [g]	MTT bioassay IC50 (95% Confidence Interval) (Caco-2 cells)	Food Consumption during the 14 days ([1]; 2 mg/kg bw) [g]	Feed efficacy (Body weight gain/Food Consumption) ([1]; 2 mg/kg bw)
CC1=C[C@H]2O[C@@H]3[C@H](O)C[C@](C)([C@@]2(CO)[C@H](O)C1=O)[C@]31CO1 [3-epi-DON]	281 (156, 505) μg/mL	85.860	0.0475	21.390	85.760	0.0413	21.680	146 (100, 212) μg/mL	–	–
CC1=C[C@H]2O[C@@H]3[C@H](O)C[C@](C)([C@@]2(CO)[C@H](O)C1=O)[C@]31CO1 [DON, Deoxynivalenol, reference compound]	0.238 (0.162, 0.349) μg/mL	–	–	–	–	–	–	0.409 (0.324, 0.518) μg/mL	81.090	0.0252
